Patent publication US10899723B2, “Heterocyclic containing cyclopropyl FXR modulators” (Hepagene Therapeutics (HK) Limited, priority 2016, dated 2021)

What was measured:
FXR = target: T1, FXR (Homo sapiens, UniProt Q96RI1); assay: FXR Transactivation Assay (pBIND-FXR / pGL4.35 luciferase reporter in HEK293T); type: cell-based; conditions: HEK293T cells
T1 construct: expressed in transfected cells; host or cells: HEK293T
T1 sequence (Q96RI1 1-486): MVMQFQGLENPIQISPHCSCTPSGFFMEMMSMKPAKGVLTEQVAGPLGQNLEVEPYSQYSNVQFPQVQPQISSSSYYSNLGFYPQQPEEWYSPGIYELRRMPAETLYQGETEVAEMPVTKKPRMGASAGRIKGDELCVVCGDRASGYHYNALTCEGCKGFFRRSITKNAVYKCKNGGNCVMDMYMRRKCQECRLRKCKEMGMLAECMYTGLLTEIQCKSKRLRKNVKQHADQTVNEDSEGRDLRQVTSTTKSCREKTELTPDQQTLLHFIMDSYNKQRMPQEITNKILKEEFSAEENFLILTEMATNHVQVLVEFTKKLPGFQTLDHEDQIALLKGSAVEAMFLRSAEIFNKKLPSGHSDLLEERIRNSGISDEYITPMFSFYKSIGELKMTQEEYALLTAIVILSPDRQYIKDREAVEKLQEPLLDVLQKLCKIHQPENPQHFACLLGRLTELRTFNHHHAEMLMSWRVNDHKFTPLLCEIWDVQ
Description: FXR Transactivation Assay
pGL4.35 [luc2P/9XGAL4 UAS/Hygro]
DMEM medium, high glucose
Fetal Bovine Serum (FBS, heat-inactivated)
Penicillin-Streptomycin (10000 U/ml, 100 ml)
DMEM, High Glucose, HEPES, no Phenol Red
Opti-MEM® I Reduced Serum Medium
Steady-Glo™ Luciferase Assay System
TransIT-293 Transfection Reagent
GW4064 as a positive control
(§1) • 1. Hek293T cells were plated at 1.1*10^6/ml into a 100 mm dish. • 2. Cells were transfected with 8.4 μg of pBind-FXR, 1.26 μg of the reporter vector pGL4.35 (Promega). Cells were incubated at 37° C. under 5% CO2 atmosphere. • 3. All of compounds were 3-fold serial diluted from 10 mM stock for 10 doses in DMSO. • 4. Transfer compound dilutions into 384 well assay plates using liquid workstation. • 5. Seed 25 ul HEK293T cells into 384 well assay plate (prepared step 4) at 0.6*10^5/ml. Cells were incubated at 37° C. under 5% CO2 atmosphere overnight. • 6. Add 25 ul steady-Glo™ Luciferase Assay Reagent into each well of 384-well assay plate. • 7. Record the luminescence value on Envision 2104 plate reader. • 8. Calculate EC50 by fitting % Activity values and log of compound concentrations to nonlinear regression (dose response−variable slope) with Graphpad 5.0. FXR Coactivator Assay Reagents: LanthaScreen™ TR-FRET Farnesoid X Receptor Coactivator Assay GW4064 as a positive control Process: • 1. All of compounds were 3-fold serial diluted from 10 mM stock for 10 doses in DMSO. • 2. Dilute each 100× agonist serial dilution to 2× using Complete Coregulator buffer G. • 3. Transfer 10 μl of each of the 2× agonist serial dilutions to 384 well assay plates. • 4. […] Incubate at room temperature protected from light. • 7. Read the plate at wavelengths of 520 nm and 495 nm on Envision 2104 plate reader. • 8. Calculate the TR-FRET ratio by dividing the emission signal at 520 nm by the emission signal at 495 nm. • 9. Calculate EC50 by fitting % Activity values and log of compound concentrations to nonlinear regression (dose response−variable slope) with Graphpad 5.0.

FXR-LBD = target: T2, FXR-LBD (Homo sapiens, UniProt Q96RI1); assay: FXR Coactivator Assay (LanthaScreen TR-FRET); type: biochemical
T2 construct: Add 5 μl of 4×FXR-LBD to 384 well assay plates; purchased
T2 sequence (Q96RI1 262-486 limits assumed): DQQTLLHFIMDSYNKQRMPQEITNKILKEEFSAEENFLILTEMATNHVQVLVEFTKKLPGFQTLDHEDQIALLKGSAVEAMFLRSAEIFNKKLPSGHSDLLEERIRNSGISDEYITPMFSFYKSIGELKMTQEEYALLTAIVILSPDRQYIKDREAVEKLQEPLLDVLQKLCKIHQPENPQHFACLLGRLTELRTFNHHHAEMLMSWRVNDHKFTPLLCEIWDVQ
Description: as §1

Structure (SMILES) | EC50 (FXR) | EC50 (FXR-LBD)
CC1(c2cncc(C(=O)O)c2)CC1c1ccc(OCc2c(-c3c(Cl)cccc3Cl)noc2C2CC2)cc1Cl (stereo not drawn) [IV-06, 5-[2-(2-Chloro-4-[[5-cyclopropyl-3-(2,6-dichlorophenyl)-1,2-oxazol-4-yl]methoxy]phenyl)-1-methylcyclopropyl] pyridine-3-carboxylic Acid] | 10 to 100 nM | 10 to 100 nM
N#CC1(c2ccc(OCc3c(-c4c(Cl)cccc4Cl)noc3C3CC3)cc2Cl)CC1c1cccc(C(=O)O)c1 (single isomer, unassigned) [VII-03-1, 3-[2-(2-Chloro-4-[[5-cyclopropyl-3-(2,6-dichlorophenyl)-1,2-oxazol-4-yl]methoxy]phenyl)-2-cyanocyclopropyl] benzoic Acid] | 101 to 400 nM | 10 to 100 nM
CC(C)c1onc(-c2c(Cl)cccc2Cl)c1COc1ccc(C2CC2(C)c2cncc(C(=O)O)c2)c(Cl)c1 (single isomer, unassigned) [IV-05-1, 5-[2-(2-Chloro-4-[[3-(2,6-dichlorophenyl)-5-(propan-2-yl)-1,2-oxazol-4-yl]methoxy]phenyl)-1-methylcyclopropyl] pyridine-3-carboxylic Acid] | 10 to 100 nM | 10 to 100 nM
COc1cc(C(=O)O)cc2sc(C3(C)CC3c3ccc(OCc4c(-c5c(Cl)cccc5Cl)noc4C4CC4)cc3Cl)nc12 (stereo not drawn) [IV-15, 2-[2-(2-Chloro-4-[[5-cyclopropyl-3-(2,6-dichlorophenyl)-1,2-oxazol-4-yl]methoxy]phenyl)-1-methylcyclopropyl]-4-methoxy-1,3-benzothiazole-6-carboxylic Acid] | 101 to 400 nM | 10 to 100 nM
CC(C)c1onc(-c2c(Cl)cccc2Cl)c1COc1ccc(C2(C#N)CC2c2cccc(C(=O)O)c2)c(Cl)c1 (stereo not drawn) [VII-02, 3-[2-(2-Chloro-4-[[3-(2,6-dichlorophenyl)-5-(propan-2-yl)-1,2-oxazol-4-yl]methoxy]phenyl)-2-cyanocyclopropyl] benzoic Acid] | 101 to 400 nM | 10 to 100 nM
CC1(c2cccc(C(=O)O)c2)CC1c1ccc(OCc2c(-c3c(Cl)cccc3Cl)noc2C2CC2)cc1Cl (stereo not drawn) [IV-03] | 101 to 400 nM | 10 to 100 nM
N#CC1(c2ccc(OCc3c(-c4c(Cl)cccc4Cl)noc3C3CC3)cc2Cl)CC1c1cccc(C(=O)O)c1 (stereo not drawn) [VII-03, 3-[2-(2-Chloro-4-[[5-cyclopropyl-3-(2,6-dichlorophenyl)-1,2-oxazol-4-yl]methoxy]phenyl)-2-cyanocyclopropyl] benzoic Acid] | 10 to 100 nM | 10 to 100 nM
CC(C)c1onc(-c2c(Cl)cccc2Cl)c1COc1ccc(C2CC2(C)c2cncc(C(=O)O)c2)c(Cl)c1 (single isomer, unassigned) [IV-05-2, 5-[2-(2-Chloro-4-[[3-(2,6-dichlorophenyl)-5-(propan-2-yl)-1,2-oxazol-4-yl]methoxy]phenyl)-1-methylcyclopropyl] pyridine-3-carboxylic Acid] | 101 to 400 nM | 10 to 100 nM
CC1(c2ccc(OCc3c(-c4c(Cl)cccc4Cl)noc3C3CC3)cc2Cl)CC1c1cncc(C(=O)O)c1 (stereo not drawn) [VI-05] | 10 to 100 nM | 10 to 100 nM
CC(C)c1onc(-c2c(Cl)cccc2Cl)c1COc1ccc(C2(C)CC2c2cccc(C(=O)O)c2)c(Cl)c1 (stereo not drawn) [VI-02] | 10 to 100 nM | 10 to 100 nM
CC(C)c1onc(-c2c(Cl)cccc2Cl)c1COc1ccc(C2CC2(C)c2ccc(C(=O)O)cc2)c(Cl)c1 (stereo not drawn) [IV-01] | 401 to 5000 nM | 101 to 400 nM
CC(C)c1onc(-c2c(Cl)cccc2Cl)c1COc1ccc(C2(C#N)CC2c2ccc(C(=O)O)cc2)c(Cl)c1 (stereo not drawn) [VII-01] | 401 to 5000 nM | 10 to 100 nM
CC(C)c1onc(-c2c(Cl)cccc2Cl)c1COc1ccc(C2CC2(C)c2cncc(C(=O)O)c2)c(Cl)c1 (stereo not drawn) [IV-05, 5-[2-(2-Chloro-4-[[3-(2,6-dichlorophenyl)-5-(propan-2-yl)-1,2-oxazol-4-yl]methoxy]phenyl)-1-methylcyclopropyl] pyridine-3-carboxylic Acid] | 10 to 100 nM | 10 to 100 nM
CC(C)c1onc(-c2c(Cl)cccc2Cl)c1COc1ccc(C2CC2(C)c2cc(C(=O)O)nn2C(C)C)c(Cl)c1 (stereo not drawn) [IV-20] | 101 to 400 nM | 10 to 100 nM
CC(C)c1onc(-c2c(Cl)cccc2Cl)c1COc1ccc(C2(C)CC2c2cncc(C(=O)O)c2)c(Cl)c1 (stereo not drawn) [VI-04, 5-[2-(2-Chloro-4-[[3-(2,6-dichlorophenyl)-5-(propan-2-yl)-1,2-oxazol-4-yl]methoxy]phenyl)-2-methylcyclopropyl] pyridine-3-carboxylic Acid] | 10 to 100 nM | 10 to 100 nM
CC(C)c1onc(-c2c(Cl)cccc2Cl)c1COc1ccc(C2CC2(C#N)c2cccc(C(=O)O)c2)c(Cl)c1 (stereo not drawn) [Compound V-02] | 101 to 400 nM | 10 to 100 nM
CC(C)c1onc(-c2c(Cl)cccc2Cl)c1COc1ccc(C2(C)CC2c2ccc(C(=O)O)cc2)c(Cl)c1 (stereo not drawn) [VI-01, 4-(2-(2-Chloro-4-((3-(2,6-dichlorophenyl)-5-isopropylisoxazol-4-yl)methoxy)phenyl)-2-methylcyclopropyl) benzoic Acid] | 101 to 400 nM | 10 to 100 nM
CC(C)c1onc(-c2c(Cl)cccc2Cl)c1COc1ccc(C2CC2(C)c2cccc(C(=O)O)c2)c(Cl)c1 (stereo not drawn) [IV-02] | 101 to 400 nM | 10 to 100 nM
